Patent US6277831A, “1,4-benzothiazepine-1,1-dioxide derivatives substituted by sugar residues, process for their preparation, pharmaceuticals comprising these compounds, and their use” (Aventis Pharma Deutschland GmbH, priority 1999, dated 2001)

System: bile acid transport in the ileum
Assay: Ileum perfusion test: inhibition of bile acid (3H-taurocholic acid) transport in the ileum of anesthetized rats
Assay type: in vivo, Male Wistar rats
Details: rat ileum perfusion; 3 mM taurocholic acid, pH 7.4, 37° C.; 3H-TCA in bile at 80-90 min vs 30-40 min; diastereomeric mixtures unless indicated otherwise
Experimental: The biological testing of compounds according to the invention was carried out by means of a perfusion test. This test investigates the action of the compounds on the bile acid transport in the ileum. The diastereomeric mixtures of the compounds were tested unless indicated otherwise.
The Perfusion Test was Carried Out as Described Below:
Male Wistar rats (weight range 250-350 g) were anesthetized with urethane (1.5 g/kg i.p.) and the bile duct was cannulated with a polyethylene tube. Eight centimeters proximal to the ileocecal flap, an incision was made into the ileum and a silicone adapter for tubes was sewn in. A second incision with implantation of a corresponding silicone adapter was made in the cecum. Silicone tubes were attached to the adapter in order to perfuse the ileum in an orthograde and open manner (nonrecirculating) with perfusion buffer at a perfusion rate of 1 ml/min.
The perfusion tubes were filled with perfusion buffer (137 mM NaCl, 0.9 mM CaCl2, 0.51 mM MgCl2, 8.1 mM Na2 HPO4, 2.7 mM KCl, 1.47 mM KH2 PO4) (pH 7.4), 1% (v/v) ethanol, and 1% DMSO. The perfusion buffer contained the test compounds in concentrations as indicated, or the vehicle alone. The buffer was preheated to 37° C. The perfusion buffer contained 3 mM taurocholic acid (TCA), which in turn was labeled with 1000 dpm/μl of ^3 H TCA as a marker.
Study Design and Evaluation of the Results
An experimental batch was chosen which allowed the determination of the inhibition of bile acid transport in the individual animal. The bile was collected at 10 min intervals over a period of 90 min (in the case of a following wash-out phase for testing the reversibility over a period of up to 160 min). The perfusion of the vehicle-containing buffer solution over a period of 40 min (pre-test substance) was followed by a perfusion with perfusion buffer which contained the test compound in the concentration to be tested (to 90 min).
For the calculation of the percentage inhibition by the test compound, the dpms (disintegrations per min of ^3 H-TCA) in the bile from 80-90 min (end of the perfusion with the test substance) were related to the collection period 30-40 min during the preliminary phase, when the excretion of the ^3 H-TCA in the control phase had reached its maximum and plateau. The EC50 (=effective concentration 50) was calculated as the effective concentration between the inhibitory values of different concentrations which inhibited the maximum bile acid excretion by 50%.

SMILES	EC50
CCCC[C@]1(CC)CS(=O)(=O)c2cc(OC)c(OC)cc2[C@@H](c2ccccc2)N1 [Comparison Example 8, reference compound]	9800 nM
CCCCC1(CC)CS(=O)(=O)c2ccc(N(C)C)cc2C(c2cccc(NC(=O)[C@H](O)[C@@H](O)[C@H](O)[C@H](O)CO)c2)N1 (some centres unmarked) [Example 1]	90 nM
CCCCC1(CC)CS(=O)(=O)c2ccc(N(C)C)cc2C(c2cccc(NC(=O)[C@H](O)[C@@H](O)[C@H](O)[C@H](O)CO)c2)N1O (some centres unmarked) [Example 2]	150 nM
CCCCC1(CC)CS(=O)(=O)c2ccc(N(C)C)cc2C(c2cccc(NC(=O)CCCCNC[C@H](O)[C@@H](O)[C@H](O)[C@H](O)CO)c2)N1 (some centres unmarked) [Example 3]	220 nM
CCCCC1(CC)CS(=O)(=O)c2ccc(N(C)C)cc2C(c2cccc(NC(=O)CCCCCCCCCCNC(=O)[C@H](O)[C@@H](O)[C@H](O)[C@H](O)CO)c2)N1 (some centres unmarked) [Example 4]	720 nM
CCCCC1(CCCC)CS(=O)(=O)c2ccc(N(C)C)cc2C(c2cccc(NC(=O)[C@H](O)[C@@H](O)[C@H](O)[C@H](O)CO)c2)N1 (some centres unmarked) [Example 5]	400 nM
CCCCC1(CCCC)CS(=O)(=O)c2ccc(N(C)C)cc2C(c2cccc(NC(=O)[C@H](O)[C@@H](O)[C@H](O)[C@H](O)CO)c2)N1O (some centres unmarked) [Example 6]	90 nM
CCCCC1(CCCC)CS(=O)(=O)c2ccc(N(C)C)cc2C(c2cccc(NC(=O)CCCCNC[C@H](O)[C@@H](O)[C@H](O)[C@H](O)CO)c2)N1 (some centres unmarked) [Example 7]	1400 nM
